Entries after “also recorded” stand apart in the source; their conditions may differ.
What was measured:
Vα14 DN32.D3 hybridoma = Vα14 DN32.D3 hybridoma stimulation by spleen cells pulsed with αGalCer variants; assay type: cell-based, mouse
From the text: FIG. 2B depicts Vα14 DN32.D3 hybridoma stimulation responses to spleen cells from Hexb^−/− (o) and Hexb^−/− littermates (●), αGalAl-(▪) and CD1-TD knock-in (▴) mice. Spleen cells were pulsed with αGalCer variants as indicated prior to hybridoma stimulation. The data are representative of 2 separate experiments.
(§1) CD1d-restricted T cell responses. Antigen presenting cells were mouse spleen cells cultured at 5×10^5 cells/well, mouse bone marrow-derived dendritic cells generated in the presence of GMC-SF and IL4, activated overnight with 10 ng/ml TNF-α and cultured at 5×10^4 cells/well, and human PBMC or GM-CSF/IL-4 cultured PBMC-derived dendritic cells cultured at 2.5×10^5 cells/well. NKT hybridomas were cultured at 5×10^4 cells/well and the human NKT line was cultured at 2.5×10^5 cells/well. Cytokines released in the culture supernatant were measured by standard ELISA for human IL-4 and IFN-γ (Pharmingen-Becton Dickinson, CA), and the indicator CTLL IL2 bioassay for mouse hybridomas. NKT hybridomas DN32.D3 (Vα14^+), TCBII (Vα14^−), TBA7 (Vα14^−) and the rat basophil leukemia RBL.CD1d transfectant line were used as described in Park, S-H et al., J. Immunol. 160 3128-34 (1998), incorporated herein by reference in its entirety. The human polyclonal Vα24Vβ11 NKT line was derived by repeated αGalCer stimulation of healthy human PBL in vitro and maintained by PHA and IL2 restimulation, and two different subclones, CD4 and DN, were used in experiments. Griffonia Simplicifolia isolectin B4 (IB4) was from Vector Laboratories, and anti-human CD1d mAb 51 was obtained from Dr. S. Porcelli. For stimulation with synthetic glycolipids, APCs were pulsed for 6 hours with various concentrations of lipids (from stock solution in DMSO), washed and incubated with NKT cell hybridoma or cell lines for 18-24 hours. […]

[1] = molecular target: T1, mCD1d-GT (mouse CD1d preloaded with GT1b) (Mus musculus, UniProt P11609); assay: CD1d lipid loading in the presence of saposin B, visualized by isoelectrofocusing; assay type: binding; settings: cell-free; for replacement of GT1b preloaded onto CD1d: 2 μM mCD1d-GT, 25 μM isogloboside, with or without 5 μM saposin B
T1 construct: made in house; host or cells: fly expression system
T1 sequence (P11609 19-297 limits assumed): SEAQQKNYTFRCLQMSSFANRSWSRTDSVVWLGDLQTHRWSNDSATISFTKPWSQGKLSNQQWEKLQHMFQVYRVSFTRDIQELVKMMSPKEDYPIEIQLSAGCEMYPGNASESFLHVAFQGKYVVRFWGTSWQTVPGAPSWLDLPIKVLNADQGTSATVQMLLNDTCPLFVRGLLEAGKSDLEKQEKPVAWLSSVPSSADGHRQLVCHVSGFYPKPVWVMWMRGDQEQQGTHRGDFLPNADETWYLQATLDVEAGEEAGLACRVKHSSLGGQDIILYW
T1 sequence (P01887 21-119 partner): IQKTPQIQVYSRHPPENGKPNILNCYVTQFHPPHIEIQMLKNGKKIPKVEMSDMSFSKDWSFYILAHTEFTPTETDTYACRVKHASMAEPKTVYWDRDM
From the text: (§2) FIG. 4C left panel depicts in vitro loading of iGb3 and iGb4 onto recombinant CD1d in the presence of saposin B, visualized by isoelectrofocusing.
(§3) CD1d lipid loading and cell-free presentation assay. Purified complexes of CD1 d-GT were made and exchange of lipid in these complexes was quantified from isoelectric focusing gels as previously described by Cantu C III, et al., J. Immunol. 170, 4673-82 (2003), incorporated herein by reference in its entirety. Saposin-mediated loading of lipid was performed with recombinant human saposin B as described in Zhou D et al., Science 303, 523-27 (2004), incorporated herein by reference in its entirety, and with mouse saposin B. Recombinant mouse saposin B was expressed in a fly expression system and purified in the same manner used for production of mouse CD1d, described in Benlagha K, et al., J. Exp. Med 191, 1895-1903 (2000), incorporated herein by reference in its entirety. […] Stimulation of the NKT cell hybridoma DN32.D3 was measured. Briefly, mouse CD1d protein was coated for 24 h at 1 μg/well in phosphate-buffered saline (PBS) on 96-well plates. Plates were washed three times with PBS and then incubated for another 24 h with a constant lipid concentration of 6 μg/ml and various concentrations of mouse saposin B. Plates were washed three times with PBS; then 2×10^4 hybridoma cells were added. Supernatants were collected after 24 h to measure IL-2 release.

non-Vα14 hybridomas = assay: Stimulation of non-Vα14 hybridomas by glycolipid presented by bone marrow-derived dendritic cells; assay type: cell-based, mouse; settings: not shown
Protocol: as §1, with “Porcelli.” for “Porcelli. For stimulation with synthetic glycolipids, APCs were pulsed for 6 hours with various concentrations of lipids (from stock solution in DMSO), washed and incubated with NKT cell hybridoma or cell lines for 18-24 hours.”

human Vα24 NKT line = assay: Cytokine secretion by human Vα24 NKT line stimulated with glycolipid-pulsed antigen presenting cells (ELISA); assay type: cell-based; settings: for stimulation of human Vα24 NKT cells: in the presence of antigen-presenting cells; for Th1 (IFNγ) cytokine secretion by polyclonal human NKT line / Th2 (IL4) cytokine secretion by polyclonal human NKT line: 100 ng/ml in FIG. 3C right panel
Protocol: FIG. 3C left panel depicts IFN-γ production by a human Vα24 NKT line stimulated with a range of concentrations of iGb3 and αGalCer in the presence of irradiated PBMC as CD1d-expressing antigen presenting cells. The right panel depicts IFN-γ vs. IL-4 production by the human Vα24 NKT line in response to irradiated PBMC and 100 ng/ml of iGb3 of synthetic, purified and enzymatic origin, vs. 100 ng/ml of αGalCer, Gb3 or LacCer, as indicated.
(§4) CD1d-restricted T cell responses. Antigen presenting cells were mouse spleen cells cultured at 5×10^5 cells/well, mouse bone marrow-derived dendritic cells generated in the presence of GMC-SF and IL4, activated overnight with 10 ng/ml TNF-α and cultured at 5×10^4 cells/well, and human PBMC or GM-CSF/IL-4 cultured PBMC-derived dendritic cells cultured at 2.5×10^5 cells/well. NKT hybridomas were cultured at 5×10^4 cells/well and the human NKT line was cultured at 2.5×10^5 cells/well. Cytokines released in the culture supernatant were measured by standard ELISA for human IL-4 and IFN-γ (Pharmingen-Becton Dickinson, CA), and the indicator CTLL IL2 bioassay for mouse hybridomas. NKT hybridomas DN32.D3 (Vα14^+), TCBII (Vα14^−), TBA7 (Vα14^−) and the rat basophil leukemia RBL.CD1d transfectant line were used as described in Park, S-H et al., J. Immunol. 160 3128-34 (1998), incorporated herein by reference in its entirety. The human polyclonal Vα24Vβ11 NKT line was derived by repeated αGalCer stimulation of healthy human PBL in vitro and maintained by PHA and IL2 restimulation, and two different subclones, CD4 and DN, were used in experiments. Griffonia Simplicifolia isolectin B4 (IB4) was from Vector Laboratories, and anti-human CD1d mAb 51 was obtained from Dr. S. Porcelli. For stimulation with synthetic glycolipids, APCs were pulsed for 6 hours with various concentrations of lipids (from stock solution in DMSO), washed and incubated with NKT cell hybridoma or cell lines for 18-24 hours.

[2] = test system: NKT cell hybridoma DN32.D3; assay: Cell-free presentation to DN32.D3 by plate-bound CD1d in the presence of saposin B (IL-2 release); assay type: cell-based, mouse; settings: lipid 6 μg/ml
From the text: as §2
as §3, with “Supernatants were collected after 24 h to measure IL-2 release.” left out

[3] = test system: mouse Vα14 hybridoma DN32.D3; assay: Stimulation of mouse Vα14 NKT hybridomas by glycolipids with bone marrow-derived dendritic cells (CTLL IL2 bioassay); assay type: cell-based; settings: for presentation to DN32.D3 by Hexb−/− cells: bone marrow-derived DC from Hexb−/− mice; for stimulation of mouse Vα14 NKT cells: in the presence of antigen-presenting cells
Protocol: FIG. 4A depicts stimulation of mouse Vα14 hybridoma DN32.D3 by iGb3 and iGb4 with bone marrow-derived DC as CD1d-expressing antigen-presenting cells from Hexb^−/−, Hexb^−/− and CD1-TD mice, as indicated.
as §4

human Vα24 NKT cells = assay: Expansion of hVα24 NKT cells in 4-day cultures of fresh PBMC (anti-Vα24 / CD1d-αGalCer tetramer staining); assay type: cell-based; settings: 100 ng/ml
Protocol: FIG. 3B depicts frequency of hVα24 NKT PBL, doubly-stained by anti-Vα24 and CD1d-αGalCer tetramers, in PBMC cultured for 4 days in the presence of 100 ng/ml αGalCer, iGb3, or medium alone, as indicated.
Lymphocyte preparation and flow cytometry. Lymphocyte preparations, CD1d-αGalCer tetramers, and flow cytometry staining were done according to standard protocols, e.g., those described in Zhou D et al., Science 303, 523-27 (2004), incorporated herein by reference in its entirety.
Chemically synthesized globotrihexosylceramide (Gb3, Gal α1,4 Gal β1,4 Glc β1,1 Cer) and isoglobotrihexosylceramide (iGb3, Gal α1,3 Gal β1,4 Glc β1,1 Cer) were tested for their ability to stimulate NKT cells in the presence of antigen-presenting cells.

hVα24 NKT line = assay: Inhibition of the response of the hVα24 NKT line to PBMC-derived dendritic cells (GMCSF release, ELISA); assay type: cell-based, human; settings: PBMC-derived dendritic cells plus exogenous ligand
Protocol: CD1d-restricted T cell responses. Antigen presenting cells were mouse spleen cells cultured at 5×10^5 cells/well, mouse bone marrow-derived dendritic cells generated in the presence of GMC-SF and IL4, activated overnight with 10 ng/ml TNF-α and cultured at 5×10^4 cells/well, and human PBMC or GM-CSF/IL-4 cultured PBMC-derived dendritic cells cultured at 2.5×10^5 cells/well. NKT hybridomas were cultured at 5×10^4 cells/well and the human NKT line was cultured at 2.5×10^5 cells/well. […] NKT hybridomas DN32.D3 (Vα14^+), TCBII (Vα14^−), TBA7 (Vα14^−) and the rat basophil leukemia RBL.CD1d transfectant line were used as described in Park, S-H et al., J. Immunol. 160 3128-34 (1998), incorporated herein by reference in its entirety. The human polyclonal Vα24Vβ11 NKT line was derived by repeated αGalCer stimulation of healthy human PBL in vitro and maintained by PHA and IL2 restimulation, and two different subclones, CD4 and DN, were used in experiments. Griffonia Simplicifolia isolectin B4 (IB4) was from Vector Laboratories, and anti-human CD1d mAb 51 was obtained from Dr. S. Porcelli. For stimulation with synthetic glycolipids, APCs were pulsed for 6 hours with various concentrations of lipids (from stock solution in DMSO), washed and incubated with NKT cell hybridoma or cell lines for 18-24 hours.

[4] = presented by irradiated PBMC, listed as Synthetic iGb3
[5] = presented by irradiated PBMC, listed as iGb3 produced in vitro by action of iGb3 synthase
[6] = presented by irradiated PBMC, listed as natural iGb3 purified from cat intestine

| Compound | presentation to DN32.D3 by α-Galactosidase A (αGalA)−/− cells (Vα14 DN32.D3 hybridoma) | loading onto mCD1d-GT by mouse versus human saposin B [1] | replacement of GT1b preloaded onto CD1d [1] | stimulation of human Vα24 NKT cells (human Vα24 NKT line) | direct stimulation of Vα14 NKT cells by CD1d/lipid complexes [2] | presentation to DN32.D3 by Hexb−/− cells [3] | stimulation of mouse Vα14 NKT cells [3] | stimulation and expansion of human NKT cells (frequency of hVα24 NKT PBL) (human Vα24 NKT cells) | further results |
| --- | --- | --- | --- | --- | --- | --- | --- | --- | --- |
| Gal α1,4 Gal αCer | selective defect | – | – | – | – | – | – | – | – |
| CCCCCCCCCCCCC/C=C/[C@@H](O)[C@H](CO[C@@H]1O[C@H](CO)[C@@H](O[C@@H]2O[C@H](CO)[C@H](O)[C@H](O[C@H]3O[C@H](CO)[C@H](O)[C@H](O)[C@H]3O)[C@H]2O)[C@H](O)[C@H]1O)NC(=O)CCCCCCCCCCCCCCCCCCCCCCCCC [iGb3, isoglobotrihexosylceramide] | – | equally loaded | partial replacement; also recorded: required saposin B | potent stimulator | directly stimulated | presented | potent stimulator | selectively stimulated and expanded | stimulation of non-Vα14 hybridomas (non-Vα14 hybridomas): failed to stimulate 3/3; Th1 (IFNγ) cytokine secretion by polyclonal human NKT line (human Vα24 NKT line; [4]): stimulated potent; Th2 (IL4) cytokine secretion by polyclonal human NKT line (human Vα24 NKT line; [4]): stimulated potent; Th1 (IFNγ) cytokine secretion by polyclonal human NKT line (human Vα24 NKT line; [5]): levels comparable to αGalCer; Th2 (IL4) cytokine secretion by polyclonal human NKT line (human Vα24 NKT line; [5]): levels comparable to αGalCer; Th1 (IFNγ) cytokine secretion by polyclonal human NKT line (human Vα24 NKT line; [6]): levels comparable to αGalCer; Th2 (IL4) cytokine secretion by polyclonal human NKT line (human Vα24 NKT line; [6]): levels comparable to αGalCer; cloned CD4 and DN human NKT lines showing cytokine secretion (human Vα24 NKT line; presented by irradiated PBMC, lines responding/tested, not shown): 2/2; other individual mVα14 hybridomas stimulated ([3]; bone marrow-derived dendritic cells, hybridomas responding/tested, not shown): 5/5; stimulation of mVα14 NKT cell hybridoma DN32.D3 ([3]; presented by CD1d-expressing bone marrow-derived dendritic cells): stimulated |
| Gal α1,2 Gal αCer | selective defect | – | – | – | – | – | – | – | – |
| CCCCCCCCCCCCCCCCCCCCCCCCCC(=O)N[C@@H](CO[C@H]1O[C@H](CO)[C@H](O)[C@H](O)[C@H]1O)[C@H](O)[C@H](O)CCCCCCCCCCCCCC [αGalCer, α-galactosylceramide, reference compound] | – | – | – | – | – | – | – | selectively stimulated and expanded | GMCSF release in the supernatant, control without lectin (hVα24 NKT line): 939 pg/mL |
| CCCCCCCCCCCCC/C=C/[C@@H](O)[C@H](COC1OC(CO)C(OC2OC(CO)C(O)C(OC3OC(CO)C(O)C(OC4OC(CO)C(O)C(O)C4NC(C)=O)C3O)C2O)C(O)C1O)NC(=O)CCCCCCCCCCCCCCCCCCCCCCCCC (stereo partly shown) [iGb4] | – | equally loaded | partial replacement; also recorded: required saposin B | stimulatory | very weak response | failed to present | stimulatory | – | – |
| GalNAc β1,4 Gal αCer | – | – | – | – | – | – | – | – | presentation to DN32.D3 by Hexb−/− cells (Vα14 DN32.D3 hybridoma): selective defect |
